Source: patent US11993594B2, “IRAK inhibitors and method for making and using” (Rigel Pharmaceuticals, Inc., priority 2016, dated 2024)
pEC50: −log10 of the molar value. Where two headings read alike, the source gives them in different places.

How the values were obtained:
[1] = test system: LPS induced IL-23 (p19/p40) in DC cells; assay: IL23-p19 ELISA, dendritic (DC) cells differentiated from human PBMC, LPS stimulated; type: cell-based; details: LPS 1 μg/ml, 18 hours, 10 pt
Description: Compound Screening Using DC Cells
Human PBMC cells (400 million) obtained from the vendor were transferred into a T-175 flask containing 15 ml RPMI media (10% FBS) and incubate for 2 hours at 37° C. After 2 hours, the media including floating cells was aspirated out carefully and 12 ml of fresh RPMI media (10% FBS) containing GMCSF (100 ng/ml) and IL4 (20 ng/ml) was added, and the flask was kept in a 37° C. incubator for 7 days.
After 3 days, fresh GMCSF (100 ng/ml) and IL4 (20 ng/ml) were added to the flask and the incubation continued. After 7 days, the fully differentiated cells were harvested by spinning down (1200 rpm/5 min) and aspirating the media. The cells were suspended in fresh RPMI media (10% FBS) containing 50 ng/ml IFNγ (1000 U/ml) and then plated (50K/well in 100 μl) onto a white clear bottom 96 well plate and left in a 37° C. incubator for 24 hours.
After 24 hours incubation, 100 μl of RPMI media was added containing 2× concentrated test compound per well to the above cell-culture media (final concentration becomes 1×) and the plates were pre-incubated for 1 hour at 37° C. before stimulating with LPS.
After 1 hour compound pre-incubation, 10 μl per well of 20× concentrated LPS solution in RPMI media was added to give a final concentration of 1 μg/ml. The mixture was shaken and incubated the plates at 37° C. for an additional 18 hours.
155 μl of the supernatant was harvested from each well carefully (without the tip touching the bottom of the well) and to the remaining 50 μl/well of the cell culture plate was added 50 μl of Cell Titer Glo reagent. The mixture was incubated for 1-2 minutes on a shaker and the plate was read for luminescence intensity to determine the compound cytotoxicity. The cell culture supernatant collected above was used to carry out IL23 ELISA (65 μl—Supernatant) and IL10 ELISA (90 μl—Supernatant) as described below.
Human IL-23 (p19/p40) ELISA Protocol (e-Biosciences)
To 10.5 ml PBS add 50 μl of anti-IL23 (p19) was added capture antibody (2.5 μg/ml). The mixture was mixed well and 100 μl of the coating solution was added to each well of the 96 well white plates from Pierce. The wells were covered and incubated overnight at 4° C.
The anti-IL23 (p19)-antibody-coated plates were washed 2× using TBST (use plate washer) and blocked using 200 μl of 0.5% Casein for 1.5 to 2 hours at room temperature with shaking.
The plates were washed 2× using TBST and the supernatant was transferred (65 μl/well) to the above pre-blocked/IL23(p19)-antibody-coated 96 well plate, and incubated at room temperature for 1.5 hours with shaking.
The plates were washed 4× using TBST (plate washer) and 100 μl/well detection antibody solution prepared from 2 μl of biotin labeled anti-IL-12 (p40/p70) antibody in 11 ml 1% BSA/PBS solution (1-5000 dilution) was added. The plates were incubated for 1 hour with shaking at Room temperature.
Again, the plates were washed 4× with TBST and 100 μl of HRP labeled Streptavidin (R&D Systems) solution (10 μl/10 ml 1% BSA solution) was added, and the plates were incubated at room temperature for another 45 minutes with shaking.
After 45 minutes, the plates were washed with TBST 4× and 100 μl/well Super Signal ELISA Pico Chemiluminescent Substrate from Pierce (3.5 ml A+3.5 ml B+3.5 ml MQ water) was added. The plates were shaken for 1-2 minutes then read on a plate reader. […]

[2] = test system: LPS Induced IL23p19 in THP-1 Cells; assay: LPS Induced IL23p19 in THP-1 Cells (with IFNγ Primed) Assay; type: cell-based, human; details: THP-1 cells primed with IFNγ 50 ng/mL, LPS 1 ug/mL, 18 hours, 10 pt, read-out: IL23-p19 ELISA, THP1-IFNγ, LPS, 10 pt EC50
Text: LPS Induced IL23p19 in THP-1 Cells (with IFNγ Primed) Assay
THP-1 Cells (ATCC, Cat #TIB-202), Dimethyl Sulfoxide (DMSO) (Sigma-Aldrich, Cat #D2650), RPMI 1640 (Cellgro, Cat #10-040-CM), Fetal Bovine Serum (Sigma, Cat #F4135), Albumin From Bovine Serum (BSA) (Sigma-Aldrich, Cat #A7906), LPS (Serotype K-235, Sigma, Product Number L 2143), IFNγ (Peprotech, Cat #300-02) Capture antibody: Human IL-23p19 ELISA (e-Bioscience, Cat. #14-7238-85), Detection antibody: Primary Mouse Biotinylated anti-human IL-12(p40/p70) (e-Bioscience, Cat. #13-7129-85), Secondary HRP-conjugated Streptavidin (R&D Systems, Cat #DY998), 1×PBST Washing Buffer (PBS-Tween tablet) (VWR International, Cat #80058-558), ELISA Blocking Buffer (PBS with 1% BSA), ELISA Dilution Buffer (PBS with 1% BSA), 384 Well Flat-Bottom, MaxiSorp Black Immuno Plates (Thermo Scientific, Cat #12-565-346), 384 Well Flat-Bottom, White Tissue Culture Plates (Thermo Scientific, Cat #12-565-343), Super Signal ELISA Pico Chemiluminescent Substrate (Thermo Scientific, Cat #37070), Cell Titer Glo reagent (Promega, Cat #G7573), Positive control, IKK2VI inhibitor (Calbiochem, Cat #401483), AquaMax 4000 plate washer (Molecular Devices), Luminometer, Wallac Victor2 1420 Multilabel Counter.
On day 1, 50K/well THP-1 cells were seeded and primed with IFNγ (50 ng/mL) in 384-well plates for about 18 hours in RPMI media with 10% FBS. On day 2, the compound was serially diluted in DMSO from 5 mM in 3-fold dilutions, and then diluted 1:125 in RPMI media with 10% FBS. 50 μL/well 2× compound was added to 50 μL/well THP-1 cells (with IFNγ primed) in duplicate in 384 well tissue culture plates. The cells were pre-incubated with compound for 1 hour at 37° C., 5% CO2 before addition of 10 μL/well 11×LPS to give a final concentration of 1 ug/mL LPS. Day 3, after stimulation for 18 hours at 37° C., 5% CO2, the assay plate was centrifuged and 70 μL/well supernatant was harvested. IL-23p19 protein in 70 µL/well of supernatant was measured by sandwich ELISA, and 25 μl/well Cell Titer Glo reagent was added to the remaining cells to measure compound toxicity.
Human IL-23p19 Sandwich ELISA:
Maxisorp immuno ELISA plates were pre-coated with 25 μL/well of anti-IL-23p19 capture antibody (2.5 ug/mL) in PBS overnight at room temperature. After washing with 1×PBST, the plates were blocked using 100 μL/well of 1% BSA in PBS for 2 hours at room temperature. The plates were washed three times with 1×PBST and 70 μL/well supernatant were added. The plates were incubated at room temperature for 2 hours with shaking and washed three times with 1×PBST. 25 μL/well of biotin labeled anti-IL-12(p40/p70) detection antibody (100 ng/mL) in PBS with 1% BSA was added and the plates were incubated at room temperature for 2 hours with shaking. After washing three times with 1×PBST, 25 μL/well of streptavidin-HRP (1:200) in PBS with 1% BSA was added and the plates were incubated at room temperature for 20 minutes with shaking. The plates were washed three times with 1×PBST and 25 μL/well of Super Signal ELISA Pico Chemiluminescent Substrate were added. The plates were read with a luminometer, and the chemiluminescence values were entered into Athena (Rigel) for curve fitting, EC50 calculation, and database storage. […]

| SMILES | pEC50 ([1]; Table 3, IFNγ 50 ng/ml) | pEC50 ([2]; Table 3) | pEC50 ([1]; Table 1, IFNγ 50 ng/ml) | pEC50 ([2]; Homo sapiens, Table 1) | pEC50 ([1]; Table 2, IFNγ 50 ng/ml) | pEC50 ([2]; Table 1) | pEC50 ([2]; Table 2) |
| --- | --- | --- | --- | --- | --- | --- | --- |
| O=C(Nc1cn([C@H]2C[C@H](N3CCOCC3)C2)nc1-c1cnccn1)c1coc(-c2cn[nH]c2)n1 [Compound I-33, N-(1-((1r,3r)-3-morpholinocyclobutyl)-3-(pyrazin-2-yl)-1H-pyrazol-4-yl)-2-(1H-pyrazol-4-yl)oxazole-4-carboxamide] |  |  | 7.63 | 7.23 |  |  |  |
| O=C(Nc1cn(C2CCC(N3CCOCC3)CC2)nc1-c1cnccn1)c1coc(-c2cn[nH]c2)n1 (stereo not drawn) [Compound I-30, N-(1-((1r,4r)-4-morpholinocyclohexyl)-3-(pyrazin-2-yl)-1H-pyrazol-4-yl)-2-(1H-pyrazol-4-yl)oxazole-4-carboxamide] |  |  | 8.19 | 8.55 |  |  |  |
| CCO[C@H]1CC[C@H](n2cc(NC(=O)c3coc(-c4cn[nH]c4)n3)c(-c3nc(F)ccc3F)n2)CC1 [Compound I-9, N-(3-(3,6-difluoropyridin-2-yl)-1-((1r,4r)-4-ethoxycyclohexyl)-1H-pyrazol-4-yl)-2-(1H-pyrazol-4-yl)oxazole-4-carboxamide] |  |  | 6.77 |  | 6.77 | 7.64 | 7.64 |
| CCO[C@H]1C[C@@H](n2cc(NC(=O)c3coc(-c4cn[nH]c4)n3)c(-c3nc(F)ccc3F)n2)C1 [Compound I-10, N-(3-(3,6-difluoropyridin-2-yl)-1-((1s,3s)-3-ethoxycyclobutyl)-1H-pyrazol-4-yl)-2-(1H-pyrazol-4-yl)oxazole-4-carboxamide] |  |  | 7.51 |  | 7.51 | 7.16 | 7.16 |
| O=C(Nc1cn([C@H]2C[C@@H](N3CCOCC3)C2)nc1-c1cnccn1)c1coc(-c2cn[nH]c2)n1 [Compound I-34, N-(1-((1s,3s)-3-morpholinocyclobutyl)-3-(pyrazin-2-yl)-1H-pyrazol-4-yl)-2-(1H-pyrazol-4-yl)oxazole-4-carboxamide] |  |  | 7.73 | 8.11 |  |  |  |
| CCOC1CCC(n2cc(NC(=O)c3coc(-c4cnn(COP(=O)(O)O)c4)n3)c(-c3nc(F)ccc3F)n2)CC1 (stereo not drawn) [Compound I-8, sodium (4-(4-((3-(3,6-difluoropyridin-2-yl)-1-((1r,4r)-4-ethoxycyclohexyl)-1H-pyrazol-4-yl)carbamoyl)oxazol-2-yl)-1H-pyrazol-1-yl)methyl phosphate] |  |  | 5.12 |  | 5.12 | 6.73 | 6.73 |

The next lines start with the values.

| pEC50 ([1]; Table 3, IFNγ 50 ng/ml) | pEC50 ([2]; Table 3) | pEC50 ([1]; Table 1, IFNγ 50 ng/ml) | pEC50 ([2]; Homo sapiens, Table 1) | pEC50 ([1]; Table 2, IFNγ 50 ng/ml) | pEC50 ([2]; Table 1) | pEC50 ([2]; Table 2) | SMILES |
| --- | --- | --- | --- | --- | --- | --- | --- |
| 7.43 | 7.36 |  |  |  |  |  | CCO[C@H]1C[C@@H](n2cc(NC(=O)c3coc(-c4cn[nH]c4)n3)c(-c3ccccn3)n2)C1 [Compound I-22, N-(1-((1s,3s)-3-ethoxycyclobutyl)-3-(pyridin-2-yl)-1H-pyrazol-4-yl)-2-(1H-pyrazol-4-yl)oxazole-4-carboxamide] |
|  |  | 7.07 |  | 7.07 | 7.46 | 7.46 | O=C(Nc1cn([C@H]2CC[C@H](N3CCOCC3)CC2)nc1-c1ncccn1)c1coc(-c2cn[nH]c2)n1 [Compound I-2, N-(1-((1r,4r)-4-morpholinocyclohexyl)-3-(pyrimidin-2-yl)-1H-pyrazol-4-yl)-2-(1H-pyrazol-4-yl)oxazole-4-carboxamide] |
|  |  | 6.96 | 6.32 |  |  |  | CCO[C@H]1CC[C@H](n2cc(NC(=O)c3coc(-c4cn[nH]c4)n3)c(-c3nc(F)c(F)cc3F)n2)CC1 [Compound I-28, N-(1-((1r,4r)-4-ethoxycyclohexyl)-3-(3,5,6-trifluoropyridin-2-yl)-1H-pyrazol-4-yl)-2-(1H-pyrazol-4-yl)oxazole-4-carboxamide] |
| 6.87 | 7.40 |  |  |  |  |  | O=C(Nc1cn(C2CCOCC2)nc1-c1ccccn1)c1coc(-c2cn[nH]c2)n1 [Compound I-20, 2-(1H-pyrazol-4-yl)-N-(3-(pyridin-2-yl)-1-(tetrahydro-2H-pyran-4-yl)-1H-pyrazol-4-yl)oxazole-4-carboxamide] |
|  |  | 6.35 | 7.07 |  |  |  | O=C(Nc1cn(CCOCC(F)(F)F)nc1-c1ccccn1)c1coc(-c2cn[nH]c2)n1 [Compound I-15, 2-(1H-pyrazol-4-yl)-N-(3-(pyridin-2-yl)-1-(2-(2,2,2-trifluoroethoxy)ethyl)-1H-pyrazol-4-yl)oxazole-4-carboxamide] |
